Molecular target: T1, P2X7 receptor (Homo sapiens, UniProt Q99572)
T1 construct: endogenous in cells; host or cells: THP-1 cells differentiated with LPS and IFN-γ
T1 sequence (Q99572 1-595): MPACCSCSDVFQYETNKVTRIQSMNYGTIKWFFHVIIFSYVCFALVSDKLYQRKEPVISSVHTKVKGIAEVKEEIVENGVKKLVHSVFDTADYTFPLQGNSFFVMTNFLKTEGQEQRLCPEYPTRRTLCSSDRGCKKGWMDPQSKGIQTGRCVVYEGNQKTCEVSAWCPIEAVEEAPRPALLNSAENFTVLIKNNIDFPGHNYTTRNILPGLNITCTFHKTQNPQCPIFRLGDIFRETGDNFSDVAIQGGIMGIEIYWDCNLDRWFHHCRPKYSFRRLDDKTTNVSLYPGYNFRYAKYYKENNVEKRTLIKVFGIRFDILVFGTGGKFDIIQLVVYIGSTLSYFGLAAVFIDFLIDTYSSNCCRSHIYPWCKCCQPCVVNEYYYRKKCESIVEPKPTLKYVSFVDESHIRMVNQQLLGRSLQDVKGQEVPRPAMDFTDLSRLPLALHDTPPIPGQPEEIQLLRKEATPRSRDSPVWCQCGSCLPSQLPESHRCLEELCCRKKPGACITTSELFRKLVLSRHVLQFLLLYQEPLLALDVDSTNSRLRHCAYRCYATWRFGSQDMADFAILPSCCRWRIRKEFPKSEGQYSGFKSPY
Experiment: IL-1β release assay in differentiated THP-1 cells stimulated with BzATP (Example 9)
Assay type: cell-based
Conditions: for inhibition at 0.3 µM: 0.3 μM concentration; for inhibition at 0.3 µM / inhibition at 0.1 µM: read-out: IL-1β % Inhib. @ 0.3 or 0.1 μM; for IC50: four parameter logistic fit, read-out: IL-1β IC50; for inhibition at 0.1 µM: 0.1 μM concentration
Description: The cells are then pretreated for 30 minutes with the compound of interest at the appropriate concentration in RPMI media containing 100 IU/mL penicillin, 100 ug/mL streptomycin. […] 30 uL of cell supernatant is then collected and IL-1β levels determined via ELISA (R&D systems Cat. # HSLB50) according to manufacturer's recommendations using the Tecan Safire plate reader. Background adjusted IL-1β levels of drug treated and non-treated cells are used to calculate the percent inhibition.
The compounds set forth in Table 1 were tested for activity in a cellular model as described herein. […] Measurements were made and IC50 values, presented in Table 2, below, were determined by fitting the data to a four parameter logistic equation using GraphPad Prism software (GraphPad Software, Inc). The equation may be expressed by the following formula:
Y=Bottom+(Top-Bottom)/(1+10̂((Log EC50−X)*HillSlope))
Where X is the logarithm of concentration, Y is the response and Y starts at Bottom and goes to Top with a sigmoid shape.

| Structure (SMILES) | inhibition at 0.3 µM | IC50 | inhibition at 0.1 µM |
| --- | --- | --- | --- |
| CC12CC3CC(C)(C1)CC(CC(=O)Nc1cccc4c(=O)n(-c5cccnc5)ccc14)(C3)C2 [ID 701] | > 76% | 3.22 nM | – |
| Cc1ccncc1-n1ccc2c(NC(=O)CC34CC5CC(CC(C5)C3)C4)cccc2c1=O [ID 702] | > 76% | 0.177 nM | – |
| Cc1ccc(-n2ccc3c(NC(=O)CC45CC6CC(CC(C6)C4)C5)cccc3c2=O)c(C)n1 [ID 703] | > 76% | 13.2 nM | – |
| O=C(CC12CC3CC(CC(C3)C1)C2)Nc1cccc2c(=O)n(-c3ccc(Oc4ccc(Br)cc4)nc3)ccc12 [ID 704] | > 76% | 0.322 nM | – |
| COc1ccc(-n2ccc3c(NC(=O)CC45CC6CC(CC(C6)C4)C5)cccc3c2=O)cn1 [ID 705] | > 76% | 2.4 nM | – |
| O=C(CC12CC3CC(CC(C3)C1)C2)Nc1cccc2c(=O)n(-c3cnc4ccccc4c3)ccc12 [ID 706] | > 76% | 58 nM | – |
| O=C(CC12CC3CC(CC(C3)C1)C2)Nc1cccc2c(=O)n(-c3ccc(Sc4cc(Cl)ccc4Cl)nc3)ccc12 [ID 707] | > 76% | 1.63 nM | – |
| Cc1ccc(Oc2ncccc2-n2ccc3c(NC(=O)CC45CC6CC(CC(C6)C4)C5)cccc3c2=O)c2c1CCC2 [ID 708] | > 76% | 26.2 nM | – |
| O=C(CC12CC3CC(CC(C3)C1)C2)Nc1cccc2c(=O)n(-c3ccc(N4CCOCC4)nc3)ccc12 [ID 709] | > 76% | 25.6 nM | – |
| COc1ncccc1-n1ccc2c(NC(=O)CC34CC5CC(CC(C5)C3)C4)cccc2c1=O [ID 710] | > 76% | 0.246 nM | – |
| O=C(CC12CC3CC(CC(C3)C1)C2)Nc1cccc2c(=O)n(-c3ccc(Oc4ccccc4)nc3)ccc12 [ID 711] | > 76% | 0.723 nM | – |
| O=C(CC12CC3CC(CC(C3)C1)C2)Nc1cccc2c(=O)n(-c3cccnc3N3CCOCC3)ccc12 [ID 712] | > 76% | 0.384 nM | – |
| O=C(CC12CC3CC(CC(C3)C1)C2)Nc1cccc2c(=O)n(-c3ccc(Oc4c(Cl)cccc4Cl)nc3)ccc12 [ID 713] | > 76% | 10.7 nM | – |
| O=C(CC12CC3CC(CC(C3)C1)C2)Nc1cccc2c(=O)n(-c3cccnc3Oc3ccccc3F)ccc12 [ID 714] | > 76% | 4.09 nM | – |
| Cc1ccc(C)c(CC(=O)Nc2cccc3c(=O)n(-c4cc(C)on4)ccc23)c1 [ID 716] | – | – | 0 to 25% |
| CCOc1cccc(C(=O)Nc2cccc3c(=O)n(-c4cc(C)on4)ccc23)c1 [ID 717] | – | – | 0 to 25% |
| Cc1cc(-n2ccc3c(NC(=O)CCc4ccccc4Cl)cccc3c2=O)no1 [ID 718] | – | – | 0 to 25% |
| Cc1cc(-n2ccc3c(NC(=O)c4ccccc4Cl)cccc3c2=O)no1 [ID 719] | – | – | 0 to 25% |
| Cc1cc(-n2ccc3c(NC(=O)c4ccccc4C)cccc3c2=O)no1 [ID 720] | – | – | 0 to 25% |
| Cc1cc(-n2ccc3c(NC(=O)c4cccc(C)c4C)cccc3c2=O)no1 [ID 721] | – | – | 0 to 25% |
| Cc1ccc(C)c(C(=O)Nc2cccc3c(=O)n(-c4cc(C)on4)ccc23)c1 [ID 722] | – | – | 26 to 50% |
| Cc1cccc(C(=O)Nc2cccc3c(=O)n(-c4cc(C)on4)ccc23)c1 [ID 723] | – | – | 0 to 25% |
| COc1ccccc1CCC(=O)Nc1cccc2c(=O)n(-c3cc(C)on3)ccc12 [ID 724] | – | – | 0 to 25% |
| COc1ccc(CCC(=O)Nc2cccc3c(=O)n(-c4cc(C)on4)ccc23)cc1 [ID 725] | – | – | 0 to 25% |
| Cc1cc(-n2ccc3c(NC(=O)Cc4ccccc4F)cccc3c2=O)no1 [ID 726] | – | – | 0 to 25% |
| COc1ccccc1CC(=O)Nc1cccc2c(=O)n(-c3cc(C)on3)ccc12 [ID 727] | – | – | 0 to 25% |
| COc1ccc(OC)c(CC(=O)Nc2cccc3c(=O)n(-c4cc(C)on4)ccc23)c1 [ID 728] | – | – | 0 to 25% |
| Cc1cc(-n2ccc3c(NC(=O)Cc4ccccc4C)cccc3c2=O)no1 [ID 729] | – | – | 0 to 25% |

| Structure (SMILES) | inhibition at 0.3 µM | IC50 | inhibition at 0.1 µM |
| --- | --- | --- | --- |
| COc1cccc(CC(=O)Nc2cccc3c(=O)n(-c4cc(C)on4)ccc23)c1 [ID 730] | – | – | 0 to 25% |
| Cc1cccc(CC(=O)Nc2cccc3c(=O)n(-c4cc(C)on4)ccc23)c1 [ID 731] | – | – | 0 to 25% |
| COc1ccc(CC(=O)Nc2cccc3c(=O)n(-c4cc(C)on4)ccc23)cc1 [ID 732] | – | – | 0 to 25% |
| Cc1ccc(CC(=O)Nc2cccc3c(=O)n(-c4cc(C)on4)ccc23)cc1 [ID 733] | – | – | 0 to 25% |
| Cc1cc(-n2ccc3c(NC(=O)c4cc5ccccc5o4)cccc3c2=O)no1 [ID 734] | – | – | 0 to 25% |
| Cc1cc(-n2ccc3c(NC(=O)CC4CC5CCC4C5)cccc3c2=O)no1 (stereo not drawn) [ID 735] | – | – | > 76% |
| Cc1cc(-n2ccc3c(NC(=O)c4cccc5c4OCCO5)cccc3c2=O)no1 [ID 736] | – | – | 0 to 25% |
| Cc1cc(C)cc(CC(=O)Nc2cccc3c(=O)n(-c4cc(C)on4)ccc23)c1 [ID 737] | – | – | 0 to 25% |
| Cc1cc(-n2ccc3c(NC(=O)C4C[C@@H]5CC[C@H]4C5)cccc3c2=O)no1 (stereo partly drawn) [ID 738] | – | – | 0 to 25% |
| COc1ccc(CC(=O)Nc2cccc3c(=O)n(-c4cc(C)on4)ccc23)c(OC)c1 [ID 739] | – | – | 0 to 25% |
| Cc1cc(-n2ccc3c(NC(=O)c4ccc(F)c(C)c4)cccc3c2=O)no1 [ID 740] | – | – | 0 to 25% |
| COc1ccc(CC(=O)Nc2cccc3c(=O)n(-c4cc(C)on4)ccc23)cc1C [ID 741] | – | – | 0 to 25% |
| Cc1cccc(CCC(=O)Nc2cccc3c(=O)n(-c4cc(C)on4)ccc23)c1 [ID 742] | – | – | 0 to 25% |
| Cc1cc(-n2ccc3c(NC(=O)c4cccc(C)c4Cl)cccc3c2=O)no1 [ID 743] | – | – | 0 to 25% |
| COc1ccc(C(=O)Nc2cccc3c(=O)n(-c4cc(C)on4)ccc23)cc1C [ID 744] | – | – | 0 to 25% |
| Cc1ccc(CCC(=O)Nc2cccc3c(=O)n(-c4cc(C)on4)ccc23)c(C)c1 [ID 745] | – | – | 0 to 25% |
| Cc1cc(-n2ccc3c(NC(=O)CCc4cccc(Cl)c4)cccc3c2=O)no1 [ID 746] | – | – | 51 to 75% |
| Cc1cc(-n2ccc3c(NC(=O)c4ccc(CC(C)C)cc4)cccc3c2=O)no1 [ID 747] | – | – | 0 to 25% |
| CCOC(=O)N1CCC(n2ccc3c(NC(=O)c4ccc(OCC)cc4O)cccc3c2=O)CC1 [ID 748] | – | – | 0 to 25% |
| CCOC(=O)N1CCC(n2ccc3c(NC(=O)c4ccc(OC)cc4C)cccc3c2=O)CC1 [ID 749] | – | – | 0 to 25% |
| CCOC(=O)N1CCC(n2ccc3c(NC(=O)[C@H]4CC[C@H](C)CC4)cccc3c2=O)CC1 [ID 750] | – | – | 0 to 25% |
| CCOC(=O)N1CCC(n2ccc3c(NC(=O)CCc4ccccc4C)cccc3c2=O)CC1 [ID 751] | – | – | 0 to 25% |
| CCOC(=O)N1CCC(n2ccc3c(NC(=O)c4ccc(-c5ccccc5)o4)cccc3c2=O)CC1 [ID 752] | – | – | 0 to 25% |
| CCOC(=O)N1CCC(n2ccc3c(NC(=O)CCc4cccc(OC)c4)cccc3c2=O)CC1 [ID 753] | – | – | 0 to 25% |
| CCOC(=O)N1CCC(n2ccc3c(NC(=O)Cc4c(C)cc(C)cc4C)cccc3c2=O)CC1 [ID 754] | – | – | 0 to 25% |
| CCOC(=O)N1CCC(n2ccc3c(NC(=O)Cc4cc(C)ccc4C)cccc3c2=O)CC1 [ID 755] | – | – | 0 to 25% |
| CCOC(=O)N1CCC(n2ccc3c(NC(=O)c4ccc(OC)c(Cl)c4)cccc3c2=O)CC1 [ID 756] | – | – | 0 to 25% |
